Laboratory results reported in US20170232083A1, “METHODS OF DIAGNOSIS AND TREATMENT OF CELIAC DISEASE IN CHILDREN” (priority 2014, published 2017).

Assays:
[1] = tested on: PBMC (polyclonal gluten-specific T cells) of paediatric and adult CD patients; assay: IFN-γ ELISpot of PBMC after 3 day oral wheat challenge (SFU, % of maximal peptide response, dominance scores, EC50; Examples 5-6); format: cell-based, human; settings: for Dominance score 3-5yrs (n = 9): CD children 3-5yrs, n = 9, following wheat challenge; for Dominance score 3-5yrs (n = 9) / Dominance score 6-10yrs (n = 10) / Dominance score 11-18yrs (n = 11): mean percentage of maximal peptide response; for Dominance score 6-10yrs (n = 10): CD children 6-10yrs, n = 10, following wheat challenge; for Dominance score 11-18yrs (n = 11): CD children 11-18yrs, n = 11, following wheat challenge; for Dominance score Mean all ages: CD children, following wheat challenge (Table 9); for dominance hierarchy across all age groupings: Example 5; for dominance hierarchy across all age groups: Example 6; for Dominance scores 3-5 yrs: children with celiac disease 3-5 yrs after wheat challenge (Table 14); for Dominance scores 6-10 yrs: children with celiac disease 6-10 yrs after wheat challenge (Table 14); for Dominance scores 11-18 yrs: children with celiac disease 11-18 yrs after wheat challenge (Table 14); for Dominance scores Mean all ages: mean of all subjects (Table 14); for IFN-γ ELISpot response: after oral wheat challenge
[2] = tested on: PBMC (polyclonal gluten-specific T cells) of paediatric and adult CD patients; settings: corresponding adult data shown for comparison (14); cited from earlier work
[3] = patient A, 11-17 yrs, cut-off 10 SFU
[4] = patient D, max peptide 30.5 SFU
[5] = patient E, H, 11-17 yrs, cut-off 10 SFU
[6] = patient F, 11-17 yrs, cut-off 10 SFU
[7] = patient G, 11-17 yrs, cut-off 10 SFU
[8] = patient H (HLA-DQ2.5 homozygote), 3-5yrs, cut-off 10 SFU
[9] = patient H, 11-17 yrs, cut-off 10 SFU
[10] = patient ID not given, 11-17 yrs, cut-off 10 SFU
[11] = patient ID not given, max peptide 95 SFU
[12] = patient N, 3-5yrs, cut-off 10 SFU
[13] = patient P, 11-17 yrs, cut-off 21.6 SFU
[14] = patient Q, 11-17 yrs, cut-off 10 SFU
[15] = patient U, H, 11-17 yrs, cut-off 10 SFU
[16] = patient V, 6-10 yrs, cut-off 10 SFU
[17] = patient Y, 6-10 yrs, cut-off 10 SFU
[18] = patient eleven, 6-10 yrs, cut-off 10 SFU
[19] = patient eleven, max peptide 57 SFU
[20] = patient five, max peptide 48 SFU
[21] = patient seven, 6-10 yrs, cut-off 10.5 SFU
[22] = patient ten, 3-5yrs, cut-off 10 SFU
[23] = patient three, 6-10 yrs, cut-off 10.5 SFU
[24] = patient twelve, 11-17 yrs, cut-off 10 SFU
[25] = patient two, 3-5yrs, cut-off 10 SFU
[26] = patient two, max peptide 60 SFU

Sequence: LPYPQPELPYPQP [Peptide W01]
- Dominance score 3-5yrs (n = 9) [1]: 68.5
- Dominance score 6-10yrs (n = 10) [1]: 71.7
- Dominance score 11-18yrs (n = 11) [1]: 51.0
- Dominance score Mean all ages [1]: 62.6
- dominance hierarchy across all age groupings [1]: most dominant three peptides
- dominance hierarchy across all age groups [1]: most dominant four peptides
- Dominance scores 3-5 yrs [1]: 65
- Dominance scores 6-10 yrs [1]: 72
- Dominance scores 11-18 yrs [1]: 51
- Dominance scores Mean all ages [1]: 62
- IFN-γ ELISpot response [1, 3]: 2 SFU
- Significant response as percentage of maximal peptide SFU [1, 4]: ′′ (21-40% = ′′)
- IFN-γ ELISpot response [1, 5]: 111 SFU
- Significant response as percentage of maximal peptide SFU ([1]; patient E, max peptide 224 SFU): ′′′ (41-70% = ′′′)
- IFN-γ ELISpot response [1, 6]: 161 SFU
- Significant response as percentage of maximal peptide SFU ([1]; patient F, max peptide 178 SFU): + (>70% = +)
- IFN-γ ELISpot response [1, 7]: 7 SFU
- IFN-γ ELISpot response [1, 8]: 33 SFU
- IFN-γ ELISpot response [1, 9]: 10 SFU
- Significant response as percentage of maximal peptide SFU ([1]; patient H, max peptide 17 SFU): ′′′ (41-70% = ′′′)
- IFN-γ ELISpot response [1, 10]: 62 SFU
- Significant response as percentage of maximal peptide SFU [1, 11]: ′′′ (41-70% = ′′′)
- Significant response as percentage of maximal peptide SFU ([1]; patient II, max peptide 15 SFU): + (>70% = +)
- Significant response as percentage of maximal peptide SFU ([1]; patient J, max peptide 196 SFU): + (>70% = +)
- Significant response as percentage of maximal peptide SFU ([1]; patient K, max peptide 53 SFU): + (>70% = +)
- Significant response as percentage of maximal peptide SFU ([1]; patient L, max peptide 11 SFU): + (>70% = +)
- Significant response as percentage of maximal peptide SFU ([1]; patient M, max peptide 48 SFU): ′′′ (41-70% = ′′′)
- IFN-γ ELISpot response [1, 12]: 6 SFU
- IFN-γ ELISpot response [1, 13]: 36 SFU
- Significant response as percentage of maximal peptide SFU ([1]; patient P, max peptide 64 SFU): ′′′ (41-70% = ′′′)
- IFN-γ ELISpot response [1, 14]: 78 SFU
- Significant response as percentage of maximal peptide SFU ([1]; patient Q, max peptide 97 SFU): + (>70% = +)
- IFN-γ ELISpot response [1, 15]: 44 SFU
- Significant response as percentage of maximal peptide SFU ([1]; patient U, max peptide 81 SFU): ′′′ (41-70% = ′′′)
- IFN-γ ELISpot response [1, 16]: 35 SFU
- Significant response as percentage of maximal peptide SFU ([1]; patient V, max peptide 35 SFU): + (>70% = +)
- IFN-γ ELISpot response [1, 17]: 16 SFU
- Significant response as percentage of maximal peptide SFU ([1]; patient Y, max peptide 16 SFU): + (>70% = +)
- IFN-γ ELISpot response [1, 18]: 45 SFU
- Significant response as percentage of maximal peptide SFU [1, 19]: + (>70% = +)
- Significant response as percentage of maximal peptide SFU [1, 20]: ′′′ (41-70% = ′′′)
- IFN-γ ELISpot response ([1]; patient four, 3-5yrs, cut-off 10 SFU): 44 SFU
- Significant response as percentage of maximal peptide SFU ([1]; patient four, max peptide 44 SFU): + (>70% = +)
- IFN-γ ELISpot response [1, 21]: 3 SFU
- IFN-γ ELISpot response [1, 22]: 9 SFU
- IFN-γ ELISpot response [1, 23]: 196 SFU
- IFN-γ ELISpot response [1, 24]: 12 SFU
- IFN-γ ELISpot response [1, 25]: 33 SFU
- Significant response as percentage of maximal peptide SFU [1, 26]: ′′′ (41-70% = ′′′)
- Dominance scores 18+ yrs [2]: 69

Sequence: LQPFPQPELPFPQP [Peptide W06]
- Dominance score 3-5yrs (n = 9) [1]: 53.1
- Dominance score 6-10yrs (n = 10) [1]: 52.7
- Dominance score 11-18yrs (n = 11) [1]: 53.8
- Dominance score Mean all ages [1]: 53.2
- dominance hierarchy across all age groups [1]: most dominant four peptides
- Dominance scores 3-5 yrs [1]: 58
- Dominance scores 6-10 yrs [1]: 53
- Dominance scores 11-18 yrs [1]: 54
- Dominance scores Mean all ages [1]: 54
- IFN-γ ELISpot response [1, 3]: 5 SFU
- Significant response as percentage of maximal peptide SFU [1, 4]: ′′′ (41-70% = ′′′)
- IFN-γ ELISpot response [1, 5]: 103 SFU
- Significant response as percentage of maximal peptide SFU ([1]; patient E, max peptide 224 SFU): ′′′ (41-70% = ′′′)
- IFN-γ ELISpot response [1, 6]: 107 SFU
- Significant response as percentage of maximal peptide SFU ([1]; patient F, max peptide 178 SFU): ′′′′
- IFN-γ ELISpot response [1, 7]: 7 SFU
- IFN-γ ELISpot response [1, 8]: 41 SFU
- IFN-γ ELISpot response [1, 9]: 16 SFU
- Significant response as percentage of maximal peptide SFU ([1]; patient H, max peptide 17 SFU): + (>70% = +)
- IFN-γ ELISpot response [1, 10]: 59 SFU
- Significant response as percentage of maximal peptide SFU [1, 11]: ′′′ (41-70% = ′′′)
- Significant response as percentage of maximal peptide SFU ([1]; patient II, max peptide 15 SFU): + (>70% = +)
- Significant response as percentage of maximal peptide SFU ([1]; patient J, max peptide 196 SFU): ′′′ (41-70% = ′′′)
- Significant response as percentage of maximal peptide SFU ([1]; patient K, max peptide 53 SFU): ′′ (21-40% = ′′)
- Significant response as percentage of maximal peptide SFU ([1]; patient M, max peptide 48 SFU): + (>70% = +)
- IFN-γ ELISpot response [1, 12]: 4 SFU
- IFN-γ ELISpot response [1, 13]: 33 SFU
- Significant response as percentage of maximal peptide SFU ([1]; patient P, max peptide 64 SFU): ′′′ (41-70% = ′′′)
- IFN-γ ELISpot response [1, 14]: 65 SFU
- Significant response as percentage of maximal peptide SFU ([1]; patient Q, max peptide 97 SFU): ′′′ (41-70% = ′′′)
- IFN-γ ELISpot response [1, 15]: 54 SFU
- Significant response as percentage of maximal peptide SFU ([1]; patient U, max peptide 81 SFU): ′′′′
- IFN-γ ELISpot response [1, 16]: 22 SFU
- Significant response as percentage of maximal peptide SFU ([1]; patient V, max peptide 35 SFU): ′′′ (41-70% = ′′′)
- IFN-γ ELISpot response [1, 17]: 6 SFU
- Significant response as percentage of maximal peptide SFU ([1]; patient Z, max peptide 13 SFU): ′′ (21-40% = ′′)
- IFN-γ ELISpot response [1, 18]: 43 SFU
- Significant response as percentage of maximal peptide SFU [1, 19]: + (>70% = +)
- Significant response as percentage of maximal peptide SFU [1, 20]: ′′ (21-40% = ′′)
- IFN-γ ELISpot response [1, 21]: 15 SFU
- Significant response as percentage of maximal peptide SFU ([1]; patient seven, max peptide 27 SFU): ′′′ (41-70% = ′′′)
- IFN-γ ELISpot response ([1]; patient six, 3-5yrs, cut-off 10 SFU): 12 SFU
- Significant response as percentage of maximal peptide SFU ([1]; patient six, max peptide 13 SFU): + (>70% = +)
- IFN-γ ELISpot response [1, 22]: 10 SFU
- Significant response as percentage of maximal peptide SFU ([1]; patient ten, max peptide 14.5 SFU): + (>70% = +)
- IFN-γ ELISpot response [1, 23]: 112 SFU
- IFN-γ ELISpot response [1, 24]: 13 SFU
- IFN-γ ELISpot response [1, 25]: 26 SFU
- Significant response as percentage of maximal peptide SFU [1, 26]: ′′′ (41-70% = ′′′)
- Dominance scores 18+ yrs [2]: 15

Sequence: LQPFPQPELPYPQP [Peptide W02, contains DQ2.5-glia-a1a and a2]
- magnitude of T cell responses, HLA-DQ2.5 homozygous vs heterozygous [1]: significantly greater
- EC50 compared between age groups ([1]; 17 children (3-5, 6-10, 11-18 yrs) and four adults, dose curve 0.1-50 ug/ml): a difference was observed between 3-5 yrs and 6-10 yrs
- Dominance score 3-5yrs (n = 9) [1]: 74.8
- Dominance score 6-10yrs (n = 10) [1]: 56.9
- Dominance score 11-18yrs (n = 11) [1]: 59.6
- Dominance score Mean all ages [1]: 63.3
- dominance hierarchy across all age groupings [1]: most dominant three peptides
- dominance hierarchy across all age groups [1]: most dominant four peptides
- response to native vs deamidated form ([1]; all age groups): Deamidation enhanced the response
- Dominance scores 3-5 yrs [1]: 77
- Dominance scores 6-10 yrs [1]: 57
- Dominance scores 11-18 yrs [1]: 60
- Dominance scores Mean all ages [1]: 64
- IFN-γ ELISpot responses Day 0 prior to vs Day 6 after wheat challenge ([1]; p<0.05, Kruskal Wallis): Significant gluten-specific responses were observed on Day 6 only
- Dominance scores 18+ yrs [2]: 58
